Legend:
TNF-α [1] = assay: Hemorrhagic shock model, Example 2: TNF-α plasma levels by ELISA; format: in vivo, Wistar rats; conditions: for increase in plasma TNF-α levels during the experiment: 10 mg/kg single bolus 30 minutes after onset of shock, up to 180 minutes; for TNF-α plasma levels: 10 mg/kg single dose after induction of hemorrhagic shock, vs non-treated HS
Method: (§1) Adult male specific pathogen-free Wistar rats (Harlan CPB, Zeist, The Netherlands), weighing 350 to 400 g were used. Animals were housed under barrier conditions at 25° C. with a twelve-hour light/dark cycle, and were allowed food and water ad libitum. The experimental protocol was approved by the Animal Experiment Committee under the Dutch Experiments on Animals Act and adhered to the rules laid down in this national law that serves the implementation of “Guidelines on the protection of experimental animals” by the Council of Europe (1986), Directive 86/609/EC.
(§2) Synthetic oligopeptides: The oligopeptides (LQGV (SEQ ID NO:2), AQGV (SEQ ID NO:1), and LAGV (SEQ ID NO:3)) were synthesized by Ansynth Service B.V. (Roosendaal, The Netherlands) and dissolved in 0.9% NaCl at a concentration of 10 mg/ml.
Surgical procedures: Rats were food deprived overnight before the experiment, but were allowed water ad libitum. Rats were anesthetized using a mixture of N2O/O2 isoflurane (Pharmachemie B.V., Haarlem, The Netherlands). Body temperature was continuously maintained at 37.5° C. by placing the rats on a thermo controlled “half-pipe” (UNO, Rotterdam, The Netherlands). Endotracheal intubation was performed, and rats were ventilated at 60 breaths per minute with a mixture of N2O/O2 2% isoflurane. Polyethylene tubes (PE-50, Becton Dickinson; St. Michielsgestel, The Netherlands) were flushed with heparin and placed via the right carotid artery in the aorta and in the right internal jugular vein. The rats received no heparin before or during the experiment.
(§3) Experimental procedures: After an acclimatization period of 15 minutes, the rats were randomized into five different groups: 1) sham, 2) hemorrhagic shock (HS), 3) hemorrhagic shock with LQGV (SEQ ID NO:2) treatment (HS/LQGV (SEQ ID NO:2)), 4) hemorrhagic shock with AQGV treatment (HS/AQGV (SEQ ID NO:1)) and 5) hemorrhagic shock with LAGV (SEQ ID NO:3) treatment (HS/LAGV (SEQ ID NO:3). Hemorrhagic shock was induced by blood withdrawal, reducing the circulating blood volume until a mean arterial pressure (MAP) of […] mmHg was reached. This level of hypotension was maintained for 60 minutes. After 30 minutes, rats received either a single bolus injection of 10 mg/kg LQGV (SEQ ID NO:2), AQGV (SEQ ID NO:1), LAGV (SEQ ID NO:3), or 0.9% NaCl solution. The peptides and dosage were based on previous studies, in which we performed dose-escalation experiments (manuscript in preparation). Sixty minutes after induction of hemorrhagic shock, rats were resuscitated by autologous blood transfusion over a period of 30 minutes and monitored for another 120 minutes, after which they were sacrificed (FIG. 7, Panel A). Sham animals underwent the same surgical procedure as the hemorrhagic shock animals, but without performing hemorrhage and administration of peptides.
Plasma collection and storage: Arterial blood was obtained 15 minutes before and 30, 60, 90, 120, 150 and 180 minutes after onset of hemorrhage (FIG. 7, Panel A). After blood withdrawal, leukocyte numbers were determined using a coulter counter (Beckman Coulter, Mijdrecht, The Netherlands) and corrected for the hematocrit. Approximately 0.3 ml of blood was placed into mini collect tubes (Greiner, Bio-one, Alphen a/d Rijn, The Netherlands), plasma was obtained by centrifugation (1500 r.p.m.; five minutes), immediately frozen, and stored at −80° C., until assayed.
Measurement of cytokines: TNF-α and IL-6 plasma levels were determined by ELISA (R&D Systems Europe Ltd., Abingdon, UK), according to the manufacturer's instructions.
(§4) Statistical analysis: Statistical analysis was performed using SPSS version 11 software (SPSS Inc., Chicago, Ill.). Inter-group differences were analyzed with Kruskal-Wallis statistical test.

IL-6 [2] = assay: Hemorrhagic shock model, Example 2: IL-6 plasma levels by ELISA; format: in vivo, Wistar rats; conditions: 10 mg/kg single dose; 120, 150 and 180 minutes after onset of shock
Method: as §1, §2
Surgical procedures: Rats were food deprived overnight before the experiment, but were allowed water ad libitum. Rats were anesthetized using a mixture of N2O/O2 isoflurane (Pharmachemie B.V., Haarlem, The Netherlands). […]
Experimental procedures: After an acclimatization period of 15 minutes, the rats were randomized into five different groups: 1) sham, 2) hemorrhagic shock (HS), 3) hemorrhagic shock with LQGV (SEQ ID NO:2) treatment (HS/LQGV (SEQ ID NO:2)), 4) hemorrhagic shock with AQGV treatment (HS/AQGV (SEQ ID NO:1)) and 5) hemorrhagic shock with LAGV (SEQ ID NO:3) treatment (HS/LAGV (SEQ ID NO:3). […] Sixty minutes after induction of hemorrhagic shock, rats were resuscitated by autologous blood transfusion over a period of 30 minutes and monitored for another 120 minutes, after which they were sacrificed (FIG. 7, Panel A). […]
Plasma collection and storage: Arterial blood was obtained 15 minutes before and 30, 60, 90, 120, 150 and 180 minutes after onset of hemorrhage (FIG. 7, Panel A). After blood withdrawal, leukocyte numbers were determined using a coulter counter (Beckman Coulter, Mijdrecht, The Netherlands) and corrected for the hematocrit. […]

hemorrhagic shock = assay: Hemorrhagic shock model, Example 1 (bled to MAP 40 mmHg, 0.9% NaCl resuscitation): blood cells, hematocrit, hepatic blood flow; format: in vivo, Wistar rats; conditions: for leukocyte concentration, peptide-treated vs non-treated animals: 5 mg/kg i.v. 30 minutes after induction of shock; for leukocytes, minimum during trauma-hemorrhage: 100% at T0, 5 mg/kg i.v. single bolus 30 minutes after induction of shock; for arterial hepatic blood flow during the shock period: control group 102.6±23.5%; for concentrations of circulating macrophages and granulocytes compared to the non-treated animals: 120 minutes after the onset of hemorrhagic shock, single dose; for blood levels of circulating macrophages and granulocytes / concentrations of circulating macrophages and granulocytes compared with the corresponding experimental group / decrease of circulating macrophages and granulocytes compared with concentrations after trauma-hemorrhage: 180 minutes after onset of trauma-hemorrhage
Method: Adult male specific pathogen-free Wistar rats (Harlan CPB, Zeist, The Netherlands), weighing 350 to 400 g were used after a minimum seven-day acclimation period. The animals were housed under barrier conditions and kept at 25° C. with a twelve-hour light/dark cycle. Rats were allowed free access to water and chow (−). All procedures were performed in accordance with the Principles of Laboratory Animal Care (NIH publication No. 86-23, revised 1985) under a protocol approved by the Committee on Animal Research of the Erasmus University (protocol EUR 365).
The rats were fasted overnight but were allowed free access to water before the experiment. Subsequent to endotracheal intubation, the rats were mechanically ventilated with an isoflurane (−) N2O/O2 mixture at 60 breaths/minute. Body temperature was continuously maintained at 37.5° C. by placing the animals on a thermo controlled “half-pipe” (UNO, The Netherlands). Polyethylene tubes (PE-50, Becton Dickinson; St. Michielsgestel, The Netherlands) were flushed with heparin and placed via the right carotid artery in the aorta and in the right internal jugular vein. The animals received no heparin before or during the experiment.
Mean arterial pressures (MAP) was measured using transducers (Becton Dickinson) that were connected in line to an electronic recorder (Hewlett Packard, 78354-A Germany) for electronically calculated mean pressures and continuous measurement of the animal's blood pressure. Under semi-sterile conditions, a median laparotomy was performed and ultrasonic perivascular flow probes (Transonic Systems Inc, Maastricht, The Netherlands) were placed on the common hepatic artery and the portal vein. A supra pubic catheter was placed to monitor the urine production during and after resuscitation.
After an acclimatization period of 20 minutes, the rats were randomized into the following five groups: • Hemorrhagic shock group were bled within ten minutes to a mean arterial pressure (MAP) of 40 mmHg and maintained at this level for 60 minutes by withdrawing or re-infusing shed blood as needed. Thereafter, the animals were resuscitated with plus minus four times the volume of the withdrawn blood over 30 minutes with a 0.9% NaCl solution. • The hemorrhagic shock group+peptide A (LAGV (SEQ ID NO:3); one-letter amino acid code) underwent the same procedure as the hemorrhagic shock group but received a single bolus injection of 5 mg/kg peptide A intravenously 30 minutes after the induction of shock. • The hemorrhagic shock group+peptide B (AQGV (SEQ ID NO:1)) underwent the same procedure as the hemorrhagic shock group and received a single bolus injection of 5 mg/kg peptide B intravenously, 30 minutes after the induction of shock. • The hemorrhagic shock group+peptide C (LQGV (SEQ ID NO:2)) underwent the same procedure as the hemorrhagic shock group and received a single bolus injection of 5 mg/kg peptide C intravenously, 30 minutes after the induction of shock. • Sham group underwent the same procedure as the hemorrhagic shock group without performing the hemorrhage or administration of any kind of peptides.
The hepatic arterial blood flow (QHA) and hepatic portal venous blood flow (QVP) were measured with transit time ultrasonic perivascular flow probes, connected to an ultrasonic meter (T201; Transonic Systems, Inc., Maastricht, NL). Systemic and hepatic hemodynamics were continuously measured. At regular time points, arterial blood samples were taken. The animals were euthanized by withdrawal of arterial blood via the carotid artery.
Plasma collection and storage: Whole arterial blood was obtained at −15, 30, 60, 90, 120, 150 and 180 minutes after induction of shock via the right carotid artery and collected in duplo. 0.2 ml was placed in tubes (Eppendorf EDTA KE/1.3) to be assayed in the coulter counter (−). 0.5 ml was placed in Minicollect tubes (Bio-one, Greiner) centrifuged for five minutes, immediately frozen, and stored at −80° C., until assayed. […]

ICAM-1 = assay: Hemorrhagic shock model, Example 2: ICAM-1 mRNA transcripts in tissue by RQ-PCR; format: in vivo, Wistar rats; conditions: 180 minutes after onset of shock, 10 mg/kg, normalized against GAPDH
Method: as §3
(§5) Tissue collection and storage: Liver, lungs, ileum and sigmoid were surgically removed at the end of the experiment, snap-frozen, and stored at −80° C., until assayed.
(§6) Evaluation of mRNA levels by real-time quantitative (RQ)-PCR: RNA was isolated using a QIAGEN kit (QIAGEN, Hilden, Germany), according to the manufacturer's instructions. TNF-α, IL-6 and ICAM-1 transcripts were determined by RQ-PCR using an Applied Biosystems 7700 PCR machine (Foster City, Calif., USA) as described previously.^[27] TNF-α, IL-6 and ICAM-1 expression was quantified by normalization against GAPDH.
as §4

TNF-α [3] = assay: Hemorrhagic shock model, Example 2: TNF-α mRNA transcripts in tissue by RQ-PCR; format: in vivo, Wistar rats; conditions: 180 minutes after onset of shock, 10 mg/kg, normalized against GAPDH
Method: as §3, §5, §6, §4

IL-6 [4] = assay: Hemorrhagic shock model, Example 2: IL-6 mRNA transcripts in tissue by RQ-PCR; format: in vivo, Wistar rats; conditions: 180 minutes after onset of shock, 10 mg/kg, normalized against GAPDH
Method: as §3, §5, §6, §4

[5] = system: pro-inflammatory cytokines; conditions: 150 mg/kg; cited from earlier work

| Substance | increase in plasma TNF-α levels during the experiment (TNF-α [1]) | TNF-α plasma levels (TNF-α [1]) | IL-6 plasma levels compared to the non-treated hemorrhagic shock group (IL-6 [2]) | leukocyte concentration, peptide-treated vs non-treated animals (hemorrhagic shock) | leukocytes, minimum during trauma-hemorrhage (hemorrhagic shock) | arterial hepatic blood flow during the shock period (hemorrhagic shock; 5 mg/kg i.v.) | ICAM-1 transcript levels in the liver (ICAM-1) | TNF-α transcripts in the liver compared to non-treated HS (TNF-α [3]) | IL-6 mRNA transcripts in the liver compared to the HS group (IL-6 [4]) | concentrations of circulating macrophages and granulocytes compared to the non-treated animals (hemorrhagic shock) | blood levels of circulating macrophages and granulocytes (hemorrhagic shock; 5 mg/kg i.v.) | concentrations of circulating macrophages and granulocytes compared with the corresponding experimental group (hemorrhagic shock; 5 mg/kg i.v.) | decrease of circulating macrophages and granulocytes compared with concentrations after trauma-hemorrhage (hemorrhagic shock; 5 mg/kg i.v.) | blood flow in the hepatic artery during the reperfusion (hemorrhagic shock; reperfusion, 5 mg/kg i.v., shock group 128.9±75.4%, control 83.7±24.2%) | mRNA expression of pro-inflammatory cytokines in the liver after hemorrhagic shock [5] |
| --- | --- | --- | --- | --- | --- | --- | --- | --- | --- | --- | --- | --- | --- | --- | --- |
| LAGV [synthetic tetrapeptide, alanine replacement variant of LQGV from loop two of the β-subunit of hCG] | none | significant reduction | significant reduction | No significant difference | 42.0±8.7% | 21.3±9.1% | did not affect | reduction | reduction | – | – | – | – | – | – |
| LQGV [synthetic tetrapeptide, part of the primary structure of loop two of the β-subunit of hCG] | none | significant reduction | significant reduction | No significant difference | 38.2±7.4% | 21.2±8.6% | did not affect | significant reduction | significant reduction | decreased | 3,846±0.636 10^9/1 | significantly lower | 39.2% | – | – |
| AQGV [synthetic tetrapeptide, alanine replacement variant of LQGV from loop two of the β-subunit of hCG] | none | significant reduction | significant reduction | No significant difference | 47.3±12.4% | 18.1±9.0% | did not affect | reduction | significant reduction | decreased | 4,432±0.736 10^9/1 | significantly lower | 29.9% | 78.4±28.3% | – |
| Alanine-glutamine dipeptide [AG] | – | – | – | – | – | – | – | – | – | – | – | – | – | – | inhibited |
